Measurements: PubChem BioAssay (NCI)
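48-hour exposure; five concentrations; linearly interpolated endpoints. TGI is the concentration that stops growth completely.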

Columns and labels:
Assay in all cases: NCI-60 cell line screen, 48 h
NCI/ADR-RES ovarian = tested on: NCI/ADR-RES ovarian
COLO 205 colon = tested on: COLO 205 colon
PC-3 prostate = tested on: PC-3 prostate
HL-60(TB) leukemia = tested on: HL-60(TB) leukemia
SN12C renal = tested on: SN12C renal
RXF 393 renal = tested on: RXF 393 renal
HOP-92 NSCLC = tested on: HOP-92 NSCLC
SF-295 CNS = tested on: SF-295 CNS
HOP-62 NSCLC = tested on: HOP-62 NSCLC
A498 renal = tested on: A498 renal
MDA-N = tested on: MDA-N

SMILES	TGI (NCI/ADR-RES ovarian) [µM]	TGI (COLO 205 colon) [µM]	TGI (PC-3 prostate) [µM]	TGI (HL-60(TB) leukemia) [µM]	TGI (SN12C renal) [µM]	TGI (RXF 393 renal) [µM]	TGI (HOP-92 NSCLC) [µM]	TGI (SF-295 CNS) [µM]	TGI (HOP-62 NSCLC) [µM]	TGI (A498 renal) [µM]	TGI (MDA-N) [µM]
COc1cc(OC)cc(C(=O)CC(=O)c2cc(OC)cc(OC)c2)c1	> 100	> 100	> 100	> 100	> 100	> 100	> 100	> 100	> 100	> 100	> 100
N#CC(C#N)=C1SC(=Nc2ccccc2)C(=Nc2ccccc2)N1c1ccccc1	97.1	30.2	25.1	> 24.6	77.2	45.5	15.6	> 76.6	> 80.9	> 92.2	37.8
Cc1c2cc[n+](C)c(C)c2cc2c1[nH]c1ccccc12	> 93.4	5.54	> 100	82.1	8.54	> 100	50.8	32.3	37.5	> 100	> 93.8
CCCCCCCCCCCC[S+](C)C	> 91.9	5.15	9.92	14.1	15.3	9.38	9.48	16.6	1.52	28.1	15.5
